Experimental data as given in US20240383911A1, “AZAINDAZOLE MACROCYCLE COMPOUNDS AND USES THEREOF” (BROADENBIO CO., LTD, priority 2021, published 2024).

Experiments:
MV-4-11 cells = experiment: Detection of MV-4-11 cell activity (CellTiter-Glo); type: cell-based; conditions: Homo sapiens, MV4-11, 120 h, 5 days, CTG, read-out: IC50, inhibitory effects on MV-4-11 cell activity
Protocol: The CellTiter-Glo (CTG) luminescence method was used to detect the effect of compounds on the activity of MV-4-11 cells.
Tested compounds: compound prepared in the Examples of the present invention.
Add 100 μL containing 20,000 MV-4-11 (human myeloid monocytic leukemia cells, from the Cell Bank of the Chinese Academy of Sciences, Cat. No. SCSP-5031) cell suspension to 96-well flat-bottom clear-bottomed cell plates (Corning, Cat #3603), and then add 100 μL of cell culture medium containing a series of concentrations of the compound to be tested, with a total volume of 200 μL per well. The final gradient concentrations of the compounds were 500 nM, 125 nM, 31.25 nM, 7.813 nM, 1.953 nM, 0.488 nM, 0.122 nM, 0.031 nM, and 0.008 nM, and the final DMSO content was 0.5%. Set cells with the cell culture medium containing 0.5% DMSO but without compounds as the 100% control; set the culture medium wells without cells as 0% background control. Incubate the cell plate in a humidified incubator at 37° C. and 5% CO2 for 5 days. After 5 days, take out the cell plate, centrifuge (1000 rpm) for 5 minutes, remove and discard 100 μL supernatant, add 100 μL CTG reagent (Promega, Cat #G7572) to each well, shake at room temperature for 10 minutes to promote cell lysis, and incubate at room temperature for 30 minutes to stabilize the luminescence signal. Use a microplate reader (Molecular Device, i3X) to read the Luminescent fluorescence value, use GraphPad Prism 5.0 software to analyze the original data, use nonlinear S-curve regression to fit the data to obtain the dose-effect curve (cell survival rate %), and calculate the IC50 value.

HPK1 = HPK1 (Homo sapiens, UniProt Q92918); experiment: HPK1 kinase activity inhibition test (ADP-Glo, luminescence); type: biochemical; conditions: 2 μM ATP, 5 nM HPK1, read-out: IC50, inhibitory effects on HPK1 kinase activity
Outline: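 Autophosphorylation assay without added substrate: HPK1 preincubated with compound 10 min at 25 °C, then ATP added for 60 min at 25 °C; final DMSO 0.5%. ADP measured by ADP-Glo luminescence; IC50 from four-parameter nonlinear fit.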

Human Jurkat-E6-1 cells = experiment: Detection of IL-2 production by Jurkat cells using ELISA; type: cell-based; conditions: anti-CD3/anti-CD28 stimulation 24 hours, tested compound 1.0 μM, read-out: Percentage of the amount of IL-2 secreted by compound treated vs DMSO-treated cells
Outline: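 Jurkat E6-1 cells were pre-incubated with compound for 30 min at 37 °C, then stimulated 24 h on plate-bound anti-CD3 plus soluble anti-CD28. Secreted IL-2 in supernatant was measured by sandwich ELISA (450 nm) against a standard curve and expressed as % of DMSO-treated cells.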

Chain of HPK1 (Q92918 whole entry): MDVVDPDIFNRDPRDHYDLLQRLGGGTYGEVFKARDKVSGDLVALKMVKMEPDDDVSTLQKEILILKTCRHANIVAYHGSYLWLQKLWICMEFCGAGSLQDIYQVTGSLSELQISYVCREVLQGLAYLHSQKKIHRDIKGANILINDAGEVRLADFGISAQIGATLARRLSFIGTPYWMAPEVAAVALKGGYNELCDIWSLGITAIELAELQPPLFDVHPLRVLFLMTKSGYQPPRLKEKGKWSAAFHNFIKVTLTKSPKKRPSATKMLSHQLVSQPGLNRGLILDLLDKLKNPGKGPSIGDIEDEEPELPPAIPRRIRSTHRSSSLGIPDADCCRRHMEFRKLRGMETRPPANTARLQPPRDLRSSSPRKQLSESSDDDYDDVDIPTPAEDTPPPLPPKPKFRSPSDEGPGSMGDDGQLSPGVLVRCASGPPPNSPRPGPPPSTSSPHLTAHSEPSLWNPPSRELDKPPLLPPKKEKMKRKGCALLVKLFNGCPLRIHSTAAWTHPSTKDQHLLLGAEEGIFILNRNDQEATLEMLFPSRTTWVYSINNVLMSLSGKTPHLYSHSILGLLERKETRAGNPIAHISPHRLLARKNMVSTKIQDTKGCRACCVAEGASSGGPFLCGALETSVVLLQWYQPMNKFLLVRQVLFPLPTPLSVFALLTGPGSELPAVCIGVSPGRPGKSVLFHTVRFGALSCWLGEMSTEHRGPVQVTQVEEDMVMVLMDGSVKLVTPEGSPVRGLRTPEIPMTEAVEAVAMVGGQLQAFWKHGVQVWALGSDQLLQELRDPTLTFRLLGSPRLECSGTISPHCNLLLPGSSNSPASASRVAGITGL

Row | IC50 (MV-4-11 cells) [nM] | IC50 (HPK1) [nM] | Compound | activity at 1 µM (Human Jurkat-E6-1 cells) [%]
1 | 32 | ≤ 5 | CN1CCN(c2ncc3cc2OCCCOc2cccc(F)c2-c2cc4c-3n[nH]c4cn2)CC1 [Compound 3, 16-fluoro-5-(4-methylpiperazin-1-yl)-7,11-dioxa-4,19,22,23-tetraazapentacyclo[16.5.2.1^2,6.0^12,17.0^21,24]hexacosa-1(23),2(26),3,5,12,14,16,18,20,24-decaene] | 823
2 | 3.8 | ≤ 5 | CN1CCN(c2ccc3cc2OCCCOc2cccc(F)c2-c2cc4c-3n[nH]c4cn2)CC1 [Compound 6, 16-fluoro-5-(4-methylpiperazin-1-yl)-7,11-dioxa-19,22,23-triazapentacyclo[16.5.2.1^2,6.0^12,17.0^21,24]hexacosa-1(23),2(26),3,5,12,14,16,18,20,24-decaene] | 542
3 | 7 | ≤ 5 | CN1CCN(c2ccc3cc2OCCOCc2cccc(F)c2-c2cc4c-3n[nH]c4cn2)CC1 [Compound 9, 16-fluoro-5-(4-methylpiperazin-1-yl)-7,10-dioxa-19,22,23-triazapentacyclo[16.5.2.1^2,6.0^12,17.0^21,24]hexacosa-1(23),2(26),3,5,12,14,16,18,20,24-decaene] | 568
